Measurements reported in patent US10632106B2, “Methods of cancer treatment with 2-(1′H-Indole-3′-carbonyl)-thiazole-4-carboxylic acid methyl ester” (Ariagen, Inc., priority 2009, dated 2020).

Legend:
[1] = PK studies of ITE in male nude mice (single dosing); format: in vivo; details: for AUC / half-life: male, nude, mouse, plasma
Description: Male nude mice were also used in PK (pharmacokinetic) studies. For i.v. injection, ITE at 1 mg/kg b.w. was administered with DMSO as vehicle via tail vein. For i.p. Injection, ITE at 10, 40, and 80 mg/kg b.w. was delivered with DMSO via lower left abdominal quadrant. In p.o. injection, ITE at 40 and 80 mg/kg b.w. were administered with a vehicle of Labrasol:PEG 400 (2:8, v/v) via oral gavage. Every 15 mice were given a single injection at each dosing level and every 3 of the dosed mice were used to collect blood sample at each time point (0, 0.083, 0.25, 0.5, 1, 2, 4, 8, 24 hr.). Animals were rotated to be sampled twice each but the duration between the two sampling times was at least 110 min. The animal was anesthetized under Isoflurane and restrained manually. Approximately 150 μl of whole blood at each time point is collected (via retro-orbital puncture) into a K2-EDTA tube. Blood samples were put on ice and processed to plasma (4,000 g, 5 min, 4° C.) within 15 min post sampling. Plasma samples were stored at −80° C. until analysis. An aliquot of 20 μl plasma sample was added with 20 μl of an internal standard (Glipizide, 500 ng/ml in ΔCN, for extraction efficiency) to 120 μl of ΔCN (acetonitrile). The mixture was vortexed at 1,500 rpm for 2 min. and then centrifuged at 12,000 rpm for 5 min. Five (5) μl of the supernatant was injected into an LC-MS/MS system (API 4000, Foster City, Calif., USA). A Gemini-C18 column (2.0×50 mm, 5 μm) was used and the LC (liquid chromatography) was run at a flow rate of 0.45 ml/min. with the following program: where Pump A was for 1 mM NH4OAc (ammonium acetate) in water plus 0.025% FA (formic acid) whereas Pump B for 1 mM NH4OAC in acetonitrile plus 0.025% FA. The negative ionization process of the mass spectrometry was operated at an APCI (Atmospheric Pressure Chemical Ionization) mode while the detection at a MRM (Multiple Reaction Monitoring) mode. ITE was identified by recognizing an LC retention time of 2.5 min. and two mass peaks at 285.0 (before collision) and 142.0 m/z (after collision) while the internal standard of 2.35 min. and two mass peaks at 444.3 (before collision) and 319.3 m/z (after collision). ITE was quantified by a standard curve generated every time by a series of known quantities of ITE running through both the extraction/precipitation process after mixing with mouse plasma and the LC-MS/MS system. The WinNonlin V5.2 statistics software (Pharsight Corporation, California, USA) was used to generate PK parameters such as Cmax, Tmax, T1/2, and AUC (Area under Curve) etc. using a non-compartmental model. Results

[2] = system: CFPAC-1 (human pancreatic cancer) xenografts; assay: CFPAC-1 xenograft growth inhibition; format: in vivo; details: ITE 100-200 mg/kg i.p. once daily
Description: All the procedures related to animal handling, care, and the treatment in the study were performed following guidelines of KeyGen Biotechn Co., Ltd. (Nanjing, China), a contract research organization we hired, based on the guidance of the Association for Assessment and Accreditation of Laboratory Animal Care (AAALAC). Animals were checked for any effects of tumor growth and drug treatment on normal behavior such as mobility, food and water consumption, body weight gain/loss (bodyweights were measured every two days), eye/hair matting, and any other abnormal effect. Death and observed clinical signs were recorded. Individual animals with a tumor volume exceeding 3,000 mm^3 or animals of a group with a mean tumor volume exceeding 2,000 mm^3 were euthanized. In addition, animals showing signs of severe distress and/or pain or losing the capability of accessing adequate food or water were humanely sacrificed.
Cell lines HCT116, Siha, MFC were cultured in DMEM medium (high glucose) supplemented with 10% fetal bovine serum (FBS), SW116 and T24 in RPMI-1640 medium with 10% FBS, M14 and A375 in DMEM medium (high glucose) with 10% calf serum (CS), SGC7901 and Ketr-3 in RPMI-1640 medium with 10% CS, and CFPAC-1 in IMDM medium with 10% FBS. All of the cells were cultured, in the presence of 100 U/ml penicillin and 100 μg/ml streptomycin, at 37° C. in an atmosphere of 5% CO2 in air. […] The cells growing in an exponential phase were harvested and counted for tumor inoculation. Cell lines 5180 and U14 were maintained in ascites (peritoneal cavity fluid) of mice and were harvested and counted for tumor inoculation. […]
Tumor volume was measured every two days in two dimensions using a caliper and the volume was calculated with a formula of: V=0.5 a×b^2, where a and b are the long and short diameter (in mm) of a tumor, respectively. […] The TGD was calculated as: TGD=T−C, where T was the time (in days) required for tumors in a drug treated group to reach a predetermined mean tumor volume and C the time (in days) in the control group to reach the same volume. […]

[3] = iv, 1 mg/kg b.w. bolus i.v. in DMSO

With `COC(=O)c1csc(C(=O)c2c[nH]c3ccccc23)n1` [ITE, 2-(1′H-indole-3′-carbonyl)-thiazole-4-carboxylic acid methyl ester] the “efficiency of absorption compared with i.v. injection” value ([1]; i.p. injection in DMSO) was “below 10%”, the AUC ([1]; ip, 10 mg/kg b.w. i.p. in DMSO) was 197 ng·h/mL and the half-life ([1]; ip, 10 mg/kg b.w. i.p. in DMSO) was 1.13 h. The AUC ([1]; ip, 40 mg/kg b.w. i.p. in DMSO) was 332 ng·h/mL, the half-life ([1]; ip, 40 mg/kg b.w. i.p. in DMSO) was 1.61 h and the AUC ([1]; ip, 80 mg/kg b.w. i.p. in DMSO) was 499 ng·h/mL. The half-life ([1]; ip, 80 mg/kg b.w. i.p. in DMSO) was 5.17 h, the AUC [1, 3] was 256 ng·h/mL and the half-life [1, 3] was 0.1 h. The AUC ([1]; po, 40 mg/kg b.w. p.o. in Labrasol:PEG 400 (2:8, v/v)) was 107 ng·h/mL, the AUC ([1]; po, 80 mg/kg b.w. p.o. in Labrasol:PEG 400 (2:8, v/v)) was 97 ng·h/mL and the absorption efficiency ([1]; p.o. in Labrasol:PEG 400 (2:8, v/v)) was “around 1%”. For the same compound, the TGD ([2]; TGD at Vol. 1,000) was 8 days, the “TGI (%)” value ([2]; TGI at day 26, TGI=(1−ΔT/ΔC)×100%) was 58% and the “Weight Loss” value ([2]; end of therapy relative to beginning) was 14%.
